In patent US20120129834A1, “SEROTONIN RECEPTOR ANTAGONISTS FOR USE IN THE TREATMENT OF HUNTINGTON'S DISEASE” (BUCK INSTITUTE FOR RESEARCH ON AGING, priority 2010, published 2012):
Entries after “also recorded” stand apart in the source; their conditions may differ.

What was measured:
STHdh111Q/111Q cells = test: viability (ATP) assay of cell death in serum deprived STHdh111Q/111Q cells (Prestwick library screen and dose/response); type: cell-based; conditions: for loss of viability (ATP levels): dose/response, STHdh111Q/111Q serum deprivation model, FIG. 17 upper panel, n=3/dose; for huntingtin-mediated cell death: screen of the Prestwick Chemical library, cell-based assay of mutant huntingtin-mediated cell death
Method: Viability as measured by ATP levels (normalized to cell number) in cells after 24 h of serum deprivation. Data are show as percent DMSO control (100%). […]
(§1) This library is composed of 1,200 marketed drugs with favorable safety, bioavailability and efficacy properties.

caspase-3/7 = test: caspase activation assay, STHdh111Q/111Q serum deprivation model; type: cell-based; conditions: dose/response, FIG. 17 lower panel, n=3/dose
R6/2 mouse model of HD [1] = test: rotarod performance of R6/2 HD mice; type: in vivo; conditions: for rotarod performance / rotarod deficit: at 9 weeks of age, 10 mg/kg
R6/2 mouse model of HD [2] = test: open field behavior analysis in R6/2 mice; type: in vivo; conditions: treated vs control
Text: as §1

R6/2 mouse model of HD [3] = test: lifespan of R6/2 mice; type: in vivo; conditions: 10 mg/kg IP daily, treatment groups compared
Text: This may reflect a specific mechanism of action for pizotifen.

[4] = weight loss in the mouse model; type: in vivo; conditions: 7.5 mg/kg, FIG. 21
ERK pathway = test: activation of the ERK pathway in vivo (striatum, cortex); set-up: species or system mouse; conditions: FIG. 23
DARPP-32 = DARPP-32 expression as measure of disease progression; type: in vivo; conditions: mouse model of HD, FIG. 24 panels A-C

In the case of `CN1CCN(C2=Nc3ccccc3Oc3ccc(Cl)cc32)CC1` [Loxapine, 2-Chloro-11-(4-methylpiperazin-1-yl)dibenzo[b,f][1,4]oxazepine], the “loss of viability (ATP levels)” value (STHdh111Q/111Q cells) was “rescue loss of viability”, the huntingtin-mediated cell death (STHdh111Q/111Q cells) was “reproducibly suppress huntingtin-mediated cell death in a dose-dependent manner” and the caspase-3/7 activation (caspase-3/7) was “rescue”.

In the case of `CN1CCC(=C2c3ccccc3C=Cc3ccccc32)CC1.Cl` [Cyproheptadine, 4-(5H-dibenzo[a,d]cyclohepten-5-ylidene)-1-methylpiperidine hydrochloride], the “loss of viability (ATP levels)” value (STHdh111Q/111Q cells) was “rescue loss of viability” and the huntingtin-mediated cell death (STHdh111Q/111Q cells) was “reproducibly suppress huntingtin-mediated cell death in a dose-dependent manner”.

In the case of `CN1CCC(=C2c3ccccc3CCc3sccc32)CC1` [Pizotifen, 4-(1-methyl-4-piperidylidine)-9,10-dihydro-4H-benzo-[4,5]cyclohepta[1,2]-thiophene], the “loss of viability (ATP levels)” value (STHdh111Q/111Q cells) was “rescue loss of viability”, the huntingtin-mediated cell death (STHdh111Q/111Q cells) was “reproducibly suppress huntingtin-mediated cell death in a dose-dependent manner” and the “dose dependence of correction of rotarod” value (R6/2 mouse model of HD [1]; FIG. 20) was “dose-dependent effect; also recorded: dose dependent response”. The rotarod performance (R6/2 mouse model of HD [1]; R6/2 mice, 10 mg/kg IP daily from 5 weeks of age, after one week of treatment) was “improved”, the “rotarod performance / rotarod deficit” value (R6/2 mouse model of HD [1]; R6/2 mice, 10 mg/kg IP daily from 5 weeks of age) was “significant beneficial effects” and the “rotarod performance / rotarod deficit” value (R6/2 mouse model of HD [1]; R6/2 mice, 10 mg/kg IP daily from 5 weeks of age, listed as pizotifin) was “corrects the rotarod deficit to near wild-type levels”. For the same molecule, the rotarod performance (R6/2 mouse model of HD [1]; R6/2 mice, 10 mg/kg IP daily, 6-week old group, after three days of treatment) was “significant improvement”, the “motor deficits (Rotarod performance)” value (R6/2 mouse model of HD [1]; R6/2 mice, two independent studies) was “robustly correct motor deficits (i.e. Rotarod performance) in R6/2 to near wild-type levels” and the “open field, general activity level” value (R6/2 mouse model of HD [2]) was “general activity level of treated animals was normal”. For the same molecule, the “open field, general activity level” value (R6/2 mouse model of HD [2]; listed as pizotifen) was “no statistical differences”, the lifespan (R6/2 mouse model of HD [3]) was “no statistical differences” and the weight loss [4] was “doesn't improve or worsen weight loss”. For the same molecule, the “activation of the ERK pathway in cortex” value (ERK pathway; cortex) was “not observed; also recorded: not cortex activation”, the “activation of the ERK pathway in striatum” value (ERK pathway; striatum) was “activation of the ERK pathway in vivo; also recorded: striatal, but not cortex activation” and the “DARPP-32 decrease (measure of disease progression)” value (DARPP-32) was “rescued”.
